# Data from paper PMC11571207, “Stereorandomized Oncocins with Preserved Ribosome Binding and Antibacterial Activity” (Journal of Medicinal Chemistry, 2024).
# Like-named read-outs stand apart in the source and are kept apart here. Non-standard residues stand in square brackets, D forms with d. Residues, ends and D or L forms follow the SMILES beside them.
# Assays:
# [1] = tested on: P. aeruginosa PA14 4.18 (pmrB); settings: for MIC P. aeruginosa PA14 4.18 (pmrB), 12.5% MHB / MIC P. aeruginosa PA14 4.18 (pmrB), full MHB: polymyxin B resistant strain, 16–20 h at 37 °C; for MIC P. aeruginosa PA14 4.18 (pmrB), 12.5% MHB: 12.5% MHB pH 7.4; for MIC P. aeruginosa PA14 4.18 (pmrB), full MHB: full MHB pH 7.4; for MIC P. aeruginosa PA14 4.18: supplement CSV
# E. coli W3110 = test: microbe, parasite or virus in culture; settings: for MIC E. coli, 12.5% MHB / MIC E. coli, Full MHB: E. coli W3110, 16–20 h at 37 °C, broth microdilution; for MIC E. coli, 12.5% MHB: 12.5% Müller–Hinton medium; for MIC E. coli, Full MHB: full Müller–Hinton medium; for MIC E. coli W3110: supplement CSV
# Method in brief: (§1)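 Read-out was visible growth after MTT addition, the MIC being the lowest inhibitory peptide concentration. Bacteria grown to log phase in LB were exposed in MH medium to peptide from 64 μg/mL in twofold dilutions for 15-18h at 37°C.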
# A. baumannii ATCC19606 = test: microbe, parasite or virus in culture; settings: for MIC A. baumannii, 12.5% MHB / MIC A. baumannii, Full MHB: A. baumannii ATCC19606, 16–20 h at 37 °C; for MIC A. baumannii, 12.5% MHB: 12.5% Müller–Hinton medium; for MIC A. baumannii, Full MHB: full Müller–Hinton medium; for MIC A. baumannii ATCC19606: supplement CSV
# Method in brief: as §1
# K. pneumoniae NCTC 418 = test: microbe, parasite or virus in culture; settings: for MIC K. pneumoniae, 12.5% MHB / MIC K. pneumoniae, Full MHB: K. pneumoniae NCTC 418, 16–20 h at 37 °C; for MIC K. pneumoniae, 12.5% MHB: 12.5% Müller–Hinton medium; for MIC K. pneumoniae, Full MHB: full Müller–Hinton medium; for MIC K. pneumoniae NCTC418: supplement CSV
# Method in brief: as §1
# S. aureus COL (MRSA) = test: microbe, parasite or virus in culture; settings: for MIC S. aureus, 12.5% MHB / MIC S. aureus, Full MHB: S. aureus COL (MRSA), 16–20 h at 37 °C; for MIC S. aureus, 12.5% MHB: 12.5% Müller–Hinton medium; for MIC S. aureus, Full MHB: full Müller–Hinton medium; for MIC S. aureus COL (MRSA): supplement CSV
# Method in brief: as §1
# P. aeruginosa PAO1 = test: microbe, parasite or virus in culture; settings: for MIC P. aeruginosa, 12.5% MHB / MIC P. aeruginosa, Full MHB: P. aeruginosa PAO1, 16–20 h at 37 °C; for MIC P. aeruginosa, 12.5% MHB: 12.5% Müller–Hinton medium; for MIC P. aeruginosa, Full MHB: full Müller–Hinton medium; for MIC P. aeruginosa PAO1: supplement CSV
# Method in brief: as §1
Compound,"MIC P. aeruginosa PA14 4.18 (pmrB), 12.5% MHB [1]","MIC P. aeruginosa PA14 4.18 (pmrB), full MHB [1]",MIC P. aeruginosa PA14 4.18 ([1]; 12.5% MH pH 7.4) [µg/mL],MIC P. aeruginosa PA14 4.18 ([1]; full MH pH 7.4) [µg/mL],"MIC E. coli, 12.5% MHB (E. coli W3110) [µg/mL]","MIC E. coli, Full MHB (E. coli W3110) [µg/mL]",MIC E. coli W3110 (E. coli W3110; 12.5% MH pH 7.4) [µg/mL],MIC E. coli W3110 (E. coli W3110; full MH pH 7.4) [µg/mL],"MIC A. baumannii, 12.5% MHB (A. baumannii ATCC19606) [µg/mL]","MIC A. baumannii, Full MHB (A. baumannii ATCC19606) [µg/mL]",MIC A. baumannii ATCC19606 (A. baumannii ATCC19606; 12.5% MH pH 7.4) [µg/mL],MIC A. baumannii ATCC19606 (A. baumannii ATCC19606; full MH pH 7.4) [µg/mL],"MIC K. pneumoniae, 12.5% MHB (K. pneumoniae NCTC 418) [µg/mL]","MIC K. pneumoniae, Full MHB (K. pneumoniae NCTC 418) [µg/mL]",MIC K. pneumoniae NCTC418 (K. pneumoniae NCTC 418; 12.5% MH pH 7.4) [µg/mL],MIC K. pneumoniae NCTC418 (K. pneumoniae NCTC 418; full MH pH 7.4) [µg/mL],"MIC S. aureus, 12.5% MHB (S. aureus COL (MRSA))","MIC S. aureus, Full MHB (S. aureus COL (MRSA))",MIC S. aureus COL (MRSA) (S. aureus COL (MRSA); 12.5% MH pH 7.4) [µg/mL],MIC S. aureus COL (MRSA) (S. aureus COL (MRSA); full MH pH 7.4) [µg/mL],other results
CC[C@H](C)[C@H](NC(=O)[C@H](CCCNC(=N)N)NC(=O)[C@H](CCCNC(=N)N)NC(=O)[C@@H]1CCCN1C(=O)[C@@H]1CCCN1C(=O)[C@H](CCCNC(=N)N)NC(=O)[C@@H]1CCCN1C(=O)[C@H](CCCNC(=N)N)NC(=O)[C@@H]1CCCN1C(=O)[C@@H](CC(C)C)NC(=O)[C@H](Cc1ccc(O)cc1)NC(=O)[C@@H]1CCCN1C(=O)[C@@H]1CCCN1C(=O)[C@H](CCCCN)NC(=O)[C@H](CC(=O)O)NC(=O)[C@@H](N)C(C)C)C(=O)N[C@@H](Cc1ccc(O)cc1)C(=O)N[C@@H](CC(N)=O)C(=O)N[C@@H](CCCNC(=N)N)C(N)=O [DL7-Onc] (H-VDKPPY[dL]PRPRPPRRIYNR-NH2),>32/>32 μg/mL,>32/>32 μg/mL,>32,>32,8,> 64,8,>64,> 16,> 64,>16,>64,> 16,> 64,>16,>64,>64 / >64 μg/mL,>64 / >64 μg/mL,>64,>64,"MIC P. aeruginosa, 12.5% MHB (P. aeruginosa PAO1): > 16 µg/mL; MIC P. aeruginosa, Full MHB (P. aeruginosa PAO1): > 64 µg/mL; MIC P. aeruginosa PAO1 (P. aeruginosa PAO1; 12.5% MH pH 7.4): >16 µg/mL; MIC P. aeruginosa PAO1 (P. aeruginosa PAO1; full MH pH 7.4): >64 µg/mL"
"CC[C@H](C)[C@H](NC(=O)[C@@H](CCCNC(=N)N)NC(=O)[C@H](CCCNC(=N)N)NC(=O)[C@@H]1CCCN1C(=O)[C@@H]1CCCN1C(=O)[C@H](CCCNC(=N)N)NC(=O)[C@@H]1CCCN1C(=O)[C@H](CCCNC(=N)N)NC(=O)[C@@H]1CCCN1C(=O)[C@H](CC(C)C)NC(=O)[C@H](Cc1ccc(O)cc1)NC(=O)[C@@H]1CCCN1C(=O)[C@@H]1CCCN1C(=O)[C@H](CCCCN)NC(=O)[C@H](CC(=O)O)NC(=O)[C@@H](N)C(C)C)C(=O)N[C@@H](Cc1ccc(O)cc1)C(=O)N[C@@H](CC(N)=O)C(=O)N[C@H](CCCNC(=N)N)C(N)=O [Onc112, reference compound] (H-VDKPPYLPRPRPPR[dR]IYN[dR]-NH2)",16 µg/mL,> 32 µg/mL,16,>32,2,4,2,4,4,32,4,32,2,4,2,4,32 µg/mL,> 64 µg/mL,32,>64,"MIC P. aeruginosa, 12.5% MHB (P. aeruginosa PAO1): 4 µg/mL; MIC P. aeruginosa, Full MHB (P. aeruginosa PAO1): 64 µg/mL; MIC P. aeruginosa PAO1 (P. aeruginosa PAO1; 12.5% MH pH 7.4): 4 µg/mL; MIC P. aeruginosa PAO1 (P. aeruginosa PAO1; full MH pH 7.4): 64 µg/mL"
